Test results: patent US7439359B2, “Small molecule compositions for binding to hsp90” (Sloan-Kettering Institute for Cancer Research, priority 2000, dated 2008)
“Also recorded” adds a separate entry of the source.

Assays:
[1] = system: PI3 kinase (p85); assay: PI3 kinase (p85) levels in MCF-7 xenograft tumor tissue (immunoblotting); assay type: in vivo, Mice; details: single dose 50, 100 and 500 mg/kg i.p., 12 hours post-treatment
Protocol: (§1) PU3 was tested for its safety and potency in MCF-7 xenografts. […] Mice with established tumors were treated with a single dose of PU3 at doses of 50, 100 and 500 mg/kg i.p. Control mice were treated with DMSO alone. Mice were sacrificed 12 hours post-treatment. For immunoblotting, tumor tissue was homogenized in 2% SDS lysis buffer (pH 7.4).

[2] = system: Hsp90; assay: Hsp90 levels in MCF-7 cells (Western blotting); assay type: cell-based, human
Protocol: (§2) To test the time course of degradation, MCF-7 cells were treated with 100 μM PU3. Aliquots of cells were recovered at 1.5, 3, 6, 12 and 24 hours, and the amount of Her2, Raf-1, Hsp90 and Trap-1 was evaluated.

[3] = system: MCF-7; assay: Growth inhibition, sulforhodamine B assay; assay type: cell-based, human; details: Homo sapiens, MCF7, 72 hours, unit inferred
Source text: (§3) Protein Assays. […] Antiproliferative index. […] Tissue Culture IC50 Studies. […] Her2 degradation. Total Protein Assays. […] Binding studies. Solid phase competition assays.

[4] = system: MDA-MB-468; assay: Growth inhibition, sulforhodamine B assay; assay type: cell-based, human; details: Homo sapiens, MDA-MB-468, 72 hours, unit inferred
Source text: as §3

[5] = system: MCF-7; assay: Growth assay, cell number by coulter counter; assay type: cell-based, human; details: MCF-7, FIG. 14
Protocol: (§4) Cell cultures of MCF-7, SKBr3 and MDA-MB-468 cells were treated with PU3 at one of several concentrations or a DMSO control to test for the occurrence of antiproliferative effects. FIGS. 14A-C show the results of cell number as a function of time.

[6] = system: MDA-MB-468; assay: Growth assay, cell number by coulter counter; assay type: cell-based, human; details: MDA-MB-468, FIG. 14
Protocol: as §4

[7] = system: SKBr3; assay: Growth assay, cell number by coulter counter; assay type: cell-based, human; details: SKBr3, FIG. 14
Protocol: as §4

[8] = molecular target: T1, Hsp90alpha (Homo sapiens, UniProt P07900); assay: Solid phase competition assay with GM-beads, Hsp90 alpha immunoblot; assay type: binding; design: purchased Stressgen SPP-770; details: competition with immobilized GM; unit inferred; read-out: EC50 Hsp90 α
Protocol: A test was also designed which allows identification of compounds which interact differentially with Hsp90-alpha and Hsp90-beta. […] An Hsp90 protein preparation containing both the alpha and the beta form is incubated with the support in the presence or absence of a compound to be evaluated. […] After washing, the material bound to the support is eluted and the eluate is separated on an SDS/PAGE gel and visualized by immunoblotting with anti-Hsp90-alpha and anti-Hsp90-beta to determine the amount of material bound. Alternatively, if quantitative amounts of the Hsp90 protein preparation or known ratios of alpha to beta forms of Hsp90 are used in the first instance, the unbound material can be analyzed by a similar technique.
as §3

[9] = Safety in mice with MCF-7 xenografts; assay type: in vivo; details: IP
Protocol: as §1

[10] = system: MCF-7 cells; assay: Changes in cell morphology; assay type: cell-based, human; details: MCF-7 cells exposed to drug
Source text: Drugs may also be assayed based upon observed very characteristic changes in cell morphology. […] The increase in size is mostly due to an abundance in cytoplasm. These morphological changes are characteristic of mature epithelial differentiation and reversal of transformation.

[11] = system: Trap1; assay: Trap1 levels in MCF-7 cells (Western blotting); assay type: cell-based, human; details: MCF-7, 10-250 μM, 24 hours
[12] = system: Her2; assay: Her2 levels in MCF-7 xenograft tumor tissue (immunoblotting); assay type: in vivo, Mice; details: single dose 50, 100 and 500 mg/kg i.p., 12 hours post-treatment
Protocol: as §1

[13] = system: Her2, Raf1, Her3, estrogen receptor (ER), Rb, p85 (PI3K), tubulin and actin; assay: Western blot of signaling proteins in SKBr3 and MCF-7 cells (differential degradation); assay type: cell-based, human
Protocol: Cultures of SKBr3 and MCF-7 cells were treated with varying concentrations (0, 10, 50 100, or 250 μM) of PU3 for 24 hours. The cells were lysed and levels of Her2, Raf1, Her3, estrogen receptor (ER), p85 (PI3K), tubulin and actin were analyzed by western blotting. Reduction in the amount of those signaling proteins which depend on hsp90 for their function (Her2, Raf1, Her3 and ER) was observed. No effect was observed on PI3K, tubulin or actin, proteins which are involved in other signaling pathways.

[14] = system: Hsp70; assay: Hsp70 levels in MCF-7 cells (Western blotting); assay type: cell-based, human
[15] = system: Her2; assay: Her2 total protein degradation in MCF-7 cells (immunoblot);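 also: Her2 levels judged by SDS-PAGE western blot of whole-cell lysates probed with anti-Her2 antibody, compared with DMSO vehicle-treated cells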
[16] = system: Raf-1; assay: Raf-1 amount in MCF-7 cells, time course; assay type: cell-based, human; details: MCF-7, 100 μM, 1.5-24 hours
Protocol: as §2

[17] = system: estrogen receptor; assay: Estrogen receptor degradation in MCF-7 cells (immunoblot); assay type: cell-based, human; details: MCF-7, 24 hours, 10-250 μM
[18] = molecular target: T2, Trap-1 (Homo sapiens, UniProt Q12931); assay: PU3-biotin on Sepharose-Streptavidin beads; assay type: binding; details: immobilized PU3-biotin
T2 sequence (Q12931 60-704): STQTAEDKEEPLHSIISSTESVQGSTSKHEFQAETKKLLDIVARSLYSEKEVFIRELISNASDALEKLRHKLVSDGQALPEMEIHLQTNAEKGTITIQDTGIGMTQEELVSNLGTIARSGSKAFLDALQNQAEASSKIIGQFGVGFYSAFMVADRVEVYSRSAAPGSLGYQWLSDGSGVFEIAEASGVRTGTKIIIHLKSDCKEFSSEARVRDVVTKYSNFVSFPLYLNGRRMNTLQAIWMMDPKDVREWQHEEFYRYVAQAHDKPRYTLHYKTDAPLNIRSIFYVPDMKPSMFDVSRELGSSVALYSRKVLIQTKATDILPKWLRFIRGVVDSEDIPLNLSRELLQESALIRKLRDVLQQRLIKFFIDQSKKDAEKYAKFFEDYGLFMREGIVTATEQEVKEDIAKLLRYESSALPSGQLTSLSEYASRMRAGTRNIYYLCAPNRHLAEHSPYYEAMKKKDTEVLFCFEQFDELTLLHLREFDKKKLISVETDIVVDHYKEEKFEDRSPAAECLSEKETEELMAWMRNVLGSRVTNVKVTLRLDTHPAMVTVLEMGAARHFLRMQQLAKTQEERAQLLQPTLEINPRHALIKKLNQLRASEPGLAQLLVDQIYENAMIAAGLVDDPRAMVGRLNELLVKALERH
Source text: (§5) PU3 was linked to Biotin through the middle OH in accordance with the synthetic scheme shown in FIGS. 16A and B. PU3-biotin was immobilized on Sepharose-Streptavidin beads.

[19] = molecular target: T1, Hsp90alpha; assay: PU3-biotin on Sepharose-Streptavidin beads; assay type: binding; details: immobilized PU3-biotin
Source text: as §5

[20] = system: Raf-1; assay: Raf-1 degradation in SKBr3 cells (immunoblot); assay type: cell-based, human; details: SKBr3, 24 hours, 10-250 μM
Protocol: PU4 degraded Her2 at concentrations greater than 50 μM and Raf-1 at a concentration of 250 μM.

[21] = MCF-7, 100 μM, within the 24 hour period
[22] = SKBr3 and MCF-7, 10-250 μM, 24 hours

CCCCn1c(Cc2cc(OC)c(OC)c(OC)c2)nc2c(N)ncnc21 [PU3]
PI3 kinase (p85) levels in tumor [1]: No change | synthesis of Hsp90 [2, 21]: significant synthesis | cellular levels of Hsp90 ([2]; MCF-7, 10-250 μM, 24 hours): increases the cellular levels of Hsp90 and Hsp70 | IC50 [3]: 50 µM | IC50 [4]: 61 µM | cell number as a function of time [5]: clearly inhibits growth | cell number as a function of time [6]: clearly inhibits growth | cell number as a function of time [7]: clearly inhibits growth | EC50 [8]: […] | dose administered without significant signs of toxicity [9]: up to 500 mg/kg | cell morphology [10]: flatten, increase in size and have distinct cellular boundaries | Trap1 level / band recognized by anti-Trap-1 antibody [11]: induces a protein band that migrates more rapidly than Trap-1 | Her2 levels in tumor [12]: reduction in Her2 levels | amount of Her2, Raf1, Her3 and ER [13, 22]: Reduction | amount of PI3K, tubulin or actin [13, 22]: No effect | Her2 degradation and lower-molecular weight HER-2 band (Example 3 summary) ([13]; cell line not stated): rapid decrease in Her2 levels | Raf / Her3 degradation (Example 3 summary) ([13]; cell line not stated): less sensitive to PU3, but are degraded at higher concentrations | synthesis of Hsp70 [14, 21]: significant synthesis | cellular levels of Hsp70 ([14]; MCF-7, 10-250 μM, 24 hours): increases the cellular levels of Hsp90 and Hsp70 | IC50 ([15]; Homo sapiens, MCF7, read-out: IC50 Her2/MCF-7): 55 µM | Her2 lost ([15]; MCF-7, 100 μM, within 3 hours of administration): more than 50% | amount of Raf-1 [16]: did not change significantly | estrogen receptor degradation [17]: partially degraded estrogen receptor at concentrations over 50 μM; also recorded: dose-dependent degradation | interaction with Trap-1 [18]: interaction of PU3 with the Trap-1 and Hsp90alpha | interaction with Hsp90alpha [19]: interaction of PU3 with the Trap-1 and Hsp90alpha | Raf-1 degradation [20]: only partial loss of Raf-1 at 250 μM
